We go through 25 compounds from ChEMBL document CHEMBL1201862, “PubChem BioAssay data set” (2004).

The structures appear in SMILES notation.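 In this assay, cells in 96-well plates receive the compound at five concentrations for 48 hours. Endpoints are linearly interpolated between the surrounding concentrations. At the GI50, growth is halved.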 Calls of active or inactive are those of the source. No stated cut-off is given here; in the data, active = GI50 up to about 1.1 µM and inactive = higher.

Some test systems named below: M19-MEL; SNB-78; KM-20L2; HOP-18; DMS-114; DMS-273; XF498; RXF 631; DLD-1.
Test in all cases: NCI-60 cell line screen, 48 h

Consider `N#CC1(Cc2ccccc2Cl)c2ccccc2C=CN1C(=O)c1ccccc1` (configuration not stated), for which the GI50 with M19-MEL is > 100 µM (inactive); with SNB-78, > 100 µM (inactive); in the test with KM-20L2, > 100 µM (inactive); in the test on HOP-18, > 100 µM (inactive); in the test with DMS-114 it was 96.8 µM (inactive); with DMS-273, > 100 µM (inactive). Also, the GI50 in the test with XF498 is 40.1 µM (inactive).

With `FC(F)(F)C1(Cl)C(c2ccccc2)=C1c1ccccc1`, the GI50 with M19-MEL was 14.6 µM (inactive); with SNB-78, 15.6 µM (inactive); with KM-20L2, 16.2 µM (inactive); in the test with RXF 631 it was 15.1 µM (inactive); with DLD-1, 14.8 µM (inactive); with HOP-18 it was 20.7 µM (inactive). For the same compound, the GI50 with DMS-114 is 12.9 µM (inactive); in the test with DMS-273, 14.3 µM (inactive); in the test on XF498 it was 13.6 µM (inactive).

In the case of `COC(=O)C1C(OCc2ccccc2)C2CCC1(OC)C=C2C` (configuration not stated), the GI50 in the test with M19-MEL is > 58.3 µM (inactive); with SNB-78, > 100 µM (inactive); in the test with KM-20L2 it was > 100 µM (inactive); with DLD-1, > 100 µM (inactive); in the test on HOP-18, > 100 µM (inactive); in the test with DMS-114, > 57.1 µM (inactive). In addition, the GI50 was > 55.3 µM (inactive) with DMS-273 and > 45.1 µM (inactive) in the test with XF498.

Take `O=C1SC(c2ccccc2)(c2ccccc2)c2ccccc21`: the GI50 with M19-MEL is > 100 µM (inactive); in the test with SNB-78, > 100 µM (inactive); with KM-20L2 it was 46.8 µM (inactive); in the test on DLD-1, 52.8 µM (inactive); in the test on HOP-18, > 100 µM (inactive); with DMS-114, 26 µM (inactive). Besides, the GI50 in the test with DMS-273 and with XF498 was > 100 µM (inactive) each time.

As for `O=C(O)C(CS)NCc1c2ccccc2[n+]([O-])c2ccccc12` (configuration not stated), the GI50 was 33.6 µM (inactive) in the test on M19-MEL; 38 µM (inactive) in the test with SNB-78; 37.2 µM (inactive) in the test on KM-20L2; 37.6 µM (inactive) in the test on RXF 631; 31.6 µM (inactive) in the test on DLD-1; 97.1 µM (inactive) in the test on HOP-18. For the same compound, the results for the GI50 with DMS-114 and in the test on DMS-273 were 22.8 µM (inactive) and 31.6 µM (inactive), respectively.

For the compound `CC(C)(C)NNC(=O)CCn1[nH]c(=O)c(Cl)c(Cl)c1=O`, the GI50 in the test with M19-MEL, in the test with KM-20L2, with RXF 631, in the test on DLD-1, with HOP-18 and in the test on DMS-114 was > 100 µM (inactive) each time. Besides, the GI50 in the test on DMS-273 and in the test on XF498 was > 100 µM (inactive) in each case.

`CC(C)OP(=O)(OC(C)C)/C(=N/Nc1ccc([N+](=O)[O-])cc1)NNC(=O)c1ccccc1`: the GI50 in the test with M19-MEL was 20.9 µM (inactive); in the test with SNB-78, 24.4 µM (inactive); in the test on KM-20L2, 48.4 µM (inactive); with DLD-1, 39.2 µM (inactive); with DMS-114, 21.8 µM (inactive); in the test on DMS-273 it was > 10 µM (inactive). In addition, the GI50 in the test with XF498 was 24.8 µM (inactive).

Take `Cc1nc(=O)[nH]c2[nH][nH]c(=O)c12`: the GI50 in the test on M19-MEL, in the test with HOP-18 and in the test with DMS-114 was > 100 µM (inactive) in each case.

As to `COc1cc2c(cc1OC)-c1c3cc(O)ccc3nn[n+]1CC2`, the GI50 with M19-MEL, with SNB-78, in the test with KM-20L2, in the test on DLD-1, in the test with HOP-18 and in the test on DMS-114 was > 100 µM (inactive) in each case. Further, the GI50 in the test on DMS-273 and in the test with XF498 was > 100 µM (inactive) in each case.

On to `CCOC(=O)/C(=C/c1ccc(OC)cc1)N(CC)CC`, for which the GI50 in the test with M19-MEL was > 100 µM (inactive); with SNB-78 it was 34.5 µM (inactive); in the test with KM-20L2 it was > 100 µM (inactive); in the test on DMS-114, > 100 µM (inactive); with DMS-273, > 100 µM (inactive); in the test on XF498 it was > 100 µM (inactive).

With `Cc1ccc(S(=O)(=O)c2ccccn2)cc1`, the GI50 with M19-MEL, in the test on SNB-78, in the test on KM-20L2, in the test on RXF 631, with DLD-1 and with HOP-18 was > 100 µM (inactive) each time. For the same compound, the GI50 with DMS-114, with DMS-273 and in the test on XF498 was > 100 µM (inactive) in each case.

`O=C1NC2(CCCC2)C(=O)C12CCCC2`: the GI50 in the test with M19-MEL, with SNB-78, in the test with RXF 631, with DLD-1, with HOP-18 and with DMS-273 was > 100 µM (inactive) throughout. Besides, the GI50 in the test with XF498 is > 100 µM (inactive).

As for `C#CCOCn1cnc2ncnc(N)c21`, the GI50 with M19-MEL, in the test on SNB-78, in the test on DLD-1, in the test with HOP-18, with DMS-114 and in the test on DMS-273 was > 100 µM (inactive) throughout. In the test on XF498, the GI50 is > 100 µM (inactive).

Take `CC(=O)N(C)OC(=O)CC(=O)c1ccccc1`: the GI50 with M19-MEL, in the test on SNB-78, in the test with KM-20L2, in the test on RXF 631, in the test with DLD-1 and in the test with DMS-114 was > 100 µM (inactive) each time. Moreover, the GI50 in the test on DMS-273 and in the test with XF498 was > 100 µM (inactive) throughout.

In the case of `CSc1ccc(/C=C2\CNC/C(=C\c3ccc(SC)cc3)C2=O)cc1`, the GI50 in the test on RXF 631 is 22.6 µM (inactive); in the test on DMS-114 it was 34 µM (inactive); with XF498 it was 8 µM (inactive).

Take `CC(=O)OC1(C#N)CC2OC1C1N=NN(C(=O)OC(C)(C)C)C21` (configuration not stated): the GI50 is > 100 µM (inactive) with M19-MEL; 21.1 µM (inactive) in the test with SNB-78; > 100 µM (inactive) with KM-20L2; 14.7 µM (inactive) with DLD-1; > 100 µM (inactive) in the test on HOP-18; 13.2 µM (inactive) with DMS-114. Further, the GI50 was 36.5 µM (inactive) in the test with DMS-273 and 89.7 µM (inactive) in the test with XF498.

For the compound `N[C@H](C(=O)O)[C@H](Cl)CC(=O)O`, the GI50 in the test with M19-MEL, with SNB-78, with KM-20L2, in the test with DLD-1, in the test on HOP-18 and in the test on DMS-114 was > 100 µM (inactive) in each case. The GI50 with DMS-273 and in the test with XF498 was > 100 µM (inactive) throughout.

In the case of `Cc1cc(N(CC(C)Br)CC(C)Br)ccc1/N=N/c1ccccc1C(=O)O` (configuration not stated), the GI50 in the test on M19-MEL is 12.2 µM (inactive); in the test on SNB-78, 11.1 µM (inactive); with KM-20L2 it was 8.75 µM (inactive); in the test on DLD-1, 3.93 µM (inactive); in the test on HOP-18, 2.64 µM (inactive); in the test with DMS-114, 1.22 µM (inactive). Further, the results for the GI50 in the test with DMS-273 and in the test with XF498 were 4.59 µM (inactive) and 1.95 µM (inactive), respectively.

`COC(=O)N/N=C(\C)C(CN(C)C)C(c1ccccc1)c1c(O)c2ccccc2oc1=O` (configuration not stated): the GI50 in the test with M19-MEL, in the test with SNB-78, with KM-20L2, with DLD-1, with DMS-114 and in the test on DMS-273 was > 100 µM (inactive) in each case. In addition, in the test on XF498, the GI50 is > 100 µM (inactive).

Turning to `O=C1C=CC(=O)c2c1ccc1c3ccccc3n(-c3ccccc3)c21`, the GI50 in the test with M19-MEL was 16.5 µM (inactive); with SNB-78, 20.3 µM (inactive); with KM-20L2 it was 17 µM (inactive); in the test with RXF 631, 25.4 µM (inactive); with DLD-1, 2.26 µM (inactive); with HOP-18, 7.82 µM (inactive). Also, the GI50 in the test on DMS-114 is 16.9 µM (inactive); in the test with DMS-273, 15.2 µM (inactive); in the test with XF498, 0.535 µM (active).

Take `O=C(CCc1n[nH]c(=S)o1)Nc1ccc(Cl)cc1Cl`: the GI50 with M19-MEL, with SNB-78, in the test on KM-20L2, in the test with RXF 631, with DLD-1 and in the test with HOP-18 was > 100 µM (inactive) in each case. Besides, the GI50 in the test on DMS-114 was > 100 µM (inactive); in the test on DMS-273, 30.8 µM (inactive).

On to `CN(C(=O)/C=C/c1ccccc1)C1C2CN3CCC(O2)C13` (configuration not stated), for which the GI50 with SNB-78, with KM-20L2, with DLD-1, in the test with HOP-18, in the test on DMS-114 and in the test on DMS-273 was > 100 µM (inactive) throughout. In addition, the GI50 in the test on XF498 was > 100 µM (inactive).

On to `COc1cc2c(c(OC)c1OC)-c1ccc(SC)c(=O)cc1[C@@H](NC(=O)c1ccc(OC(C)=O)cc1)CC2`, for which the GI50 is 0.0265 µM (active) in the test on M19-MEL; 0.00451 µM (active) in the test on SNB-78; 0.0189 µM (active) with KM-20L2; 0.0275 µM (active) with RXF 631; 0.0323 µM (active) with DLD-1; 0.01 µM (active) in the test with DMS-273. Further, the GI50 in the test on XF498 is 0.0169 µM (active).

For `COc1ccc(C(=O)c2cc(OC)c(OC)c(OC)c2)cc1`, the GI50 was 0.893 µM (active) with M19-MEL; 0.194 µM (active) in the test on SNB-78; 0.0715 µM (active) in the test on KM-20L2; 0.184 µM (active) with RXF 631; 0.204 µM (active) in the test on DLD-1; > 100 µM (inactive) in the test on HOP-18. Further, the GI50 in the test with DMS-114 is 0.285 µM (active); in the test on DMS-273 it was 0.0863 µM (active); in the test with XF498, 0.432 µM (active).

For `CC(C)(C)c1cc(C=C(C#N)C#N)cc(C(C)(C)C)c1O` [TYRPHOSTIN A9], the GI50 with KM-20L2 was 4.61 µM (inactive); in the test on DLD-1, 0.828 µM (active); in the test on DMS-114, 0.179 µM (active); in the test on DMS-273, 0.736 µM (active); in the test with XF498 it was 0.776 µM (active).
